Experimental data from patent US20030068385A1, “Accelerated action fatty acid (AAFA) promotes health of normal tissues and minimizes the toxic side effects of chemotherapy” (priority 2001, published 2003).
Structures can show the parent of a compound that is named as a salt. Blank lines part the entries; values can stand above or below the molecule they belong to.

Key:
[1] = Body weight gain during CPT-11 treatment on AAFA diets (Example 1); format: in vivo; conditions: male Swiss mice; 0-3% AAFA diets; CPT-11 60 mg/kg IV once each four days for 2 weeks
Method: 40 male Swiss mice, 6 weeks old, were obtained and earmarked for unique identification. Mice were housed 5/cage in Laboratory Animal Resources facilities. After 24 hours acclimation, mice were weighed and the food was changed to one of four defined diets. The AIN-76 based, 10% total fat diets contained: 0% AAFA+10% corn oil, 1% AAFA+9% corn oil, 2% AAFA+8% corn oil or 3% AAFA+7% corn oil. Two cages (10 mice) were designated to consume each diet. All mice were weighed three times weekly throughout the experiment.
Mice consumed the diet for 2 weeks then treatment with CPT-11 commenced for half of the mice (1 cage of 5 mice) on each diet. CPT-11 was administered at 60 mg/kg body weight, IV in a lateral tail vein, once each four days for 2 weeks. Control mice received an equivalent volume of the CPT-11 vehicle.

[2] = Blood counts: WBC, RBC, hematocrit (Example 1); format: in vivo; conditions: Swiss mice treated with CPT-11; AAFA prior to and during CPT-11
Method: (§1) Mice were killed 24 hours after the last CPT-11 treatment. At necropsy, mice were weighed, anesthesized and blood was drawn via cardiac puncture. Peripheral blood was placed in an EDTA-containing tube and sent to Laboratory Animal Resources for complete blood counts. The liver, spleen, testes and kidneys were removed, weighed, then part of each organ was fixed in Omnifix® and a part was quick frozen in liquid nitrogen. The brain was removed and frozen in liquid nitrogen. The colon was resected, split open longitudinally and placed serosal side down on a card. Feces were removed from the colon, placed in a tared pan and weighed, then placed in a 100° C. vacuum oven for drying to constant weight. The colon and a section of duodenum were fixed in Omnifix®. The fixed colon and duodenum were oriented in cassettes then processed to paraffin blocks. Paraffin sections were cut 4 μm thick, histological slides of the colon and duodenum were prepared and stained with H & E or periodic acid-Schiff stain.

[3] = Liver weight as percent of body weight (Example 1); format: in vivo; conditions: Swiss mice treated with CPT-11; compared with mice not treated with CPT-11
Method: as §1
The weight of the liver was expressed as a percent of body weight. […] Thus, the treatment returned the values to control (no CPT-11 treatment) group values.

[4] = Coat quality (Example 1); format: in vivo; conditions: Swiss mice treated with CPT-11; compared with normal control group
From the text: The group of mice that consumed the ‘normal’ diet containing 10% corn oil and 0% AAFA that were not treated with CPT-11 (normal control group) was compared to the groups of mice treated with CPT-11 that consumed each diet. […] Thus, the treatment helped return the animal grooming behavior closer to the normal untreated control group without CPT-11. This generally reflects that the animals were “feeling better”.

[5] = Fecal water content (Example 1); format: in vivo; conditions: Swiss mice treated with CPT-11 60 mg/kg IV; compared with mice not treated with CPT-11; not significant by ANOVA
Method: as §1
The initial wet weight and final constant weight of the dried feces was used to calculate the % of water in the feces of each mouse as an assay of intestinal function. […] Thus, the treatment helped return the values closer to control (no CPT-11 treatment) group values.

[6] = system: peripheral blood erythrocytes; assay: Micronuclei and polychromataphilic erythrocytes in peripheral blood; format: in vivo; conditions: Swiss mice treated with CPT-11; compared with mice that did not receive CPT-11
Method: After completion of blood counts, a thin smear of peripheral blood was made on a microscope slide, the smear was air-dried and was then stained for 5 minutes with 0.01 mg/ml acridine orange in phosphate buffered saline (pH 7.0). Micronuclei and polychomataphilic erythrocytes (PCE) were identified on the acridine orange stained smears of peripheral blood. Using fluorescent microscopy and a 100X oil objective, the mature erythrocytes, lacking either DNA or RNA are green, the RNA containing PCE are reddish and the DNA containing micronuclei are bright yellow. Fields containing a single layer of erythrocytes were identified. At least 8 standard fields (300, 400 or 500 cells) were identified on each slide and the number or micronuclei or PCEs were counted and recorded.

[7] = system: duodenum crypts; assay: Apoptotic figures in the duodenum (Example 1); format: in vivo; conditions: Swiss mice, CPT-11 60 mg/kg IV; two way ANOVA
Method: as §1
The number of apoptotic cells found in 10 complete, midaxially sectioned duodenum crypts was counted as an indication of intestinal damage. […] Thus, the treatment helped return the values closer to control (no CPT-11 treatment) group values.

[8] = cited from earlier work
[9] = system: A549 human lung cancer xenografts; assay: Growth rate of A549 xenografts in nude mice (Example 3); format: in vivo
Method: A549 human lung cancer cells (American Type Culture Collection, Rockville, Md.) were cultured for injection in nude mice. The culture medium was an enriched L15:SMEM base media supplemented with other factors as described previously.
Twenty five male nude mice were allowed to acclimate for one week then were inoculated with tumor cells. The mice were housed under aseptic conditions (positive air pressure in a designated nude mouse room, cages, bedding, water and food were sterilized, cages had microisolator tops) in a temperature (24° C.) and light controlled (12 h light per day) room. All mouse handling was carried out under a laminar flow hood. Our Institutional Animal Care and Use Committee approved all animal use and handling before commencing the experiment. The animal care facilities are accredited by the American Association for the Accreditation of Laboratory Animal Care. Experimental Design-Cultured A549 cells were harvested, rinsed then suspended in serum-free L15:SMEM culture medium. Cells in suspension were counted using a hemocytometer and the cell count was adjusted to […]. The suspension was kept well mixed during the time of injection. […]
Tumor lengths and widths and body weights were measured three times weekly. […] Tumor sizes were calculated using the formula for the volume of a prolate spheroid, […]

[10] = patients or other mammals treated with CPT-11

hematocrit [2]: significantly decreased | red blood cell count [2]: significantly decreased | white blood cell count [2]: significantly decreased | liver weight as percent of body weight [3]: significantly larger | coat quality [4]: scruffy | mean fecal water content (% of water in the feces) [5]: higher
Molecule: CCc1c2c(nc3ccc(OC(=O)N4CCC(N5CCCCC5)CC4)cc13)-c1cc3c(c(=O)n1C2)COC(=O)[C@]3(O)CC [CPT-11, irinotecan hydrochloride]
weight gained during the time of CPT-11 treatment [1]: not significantly different | micronuclei (MN) in the peripheral blood [6]: significantly higher | polychromataphilic erythrocytes (PCE) in the peripheral blood [6]: significantly higher | number of apoptotic cells in 10 duodenum crypts [7]: significantly increased | patients with anemia [8, 10]: 67% | patients with leukopenia [8, 10]: 91% | patients reporting asthenia (tiredness or weakness) ([8]; side effect of CPT-11 treatment): ~90%

Molecule: COc1cccc2c1C(=O)c1c(O)c3c(c(O)c1C2=O)C[C@@](O)(C(=O)CO)C[C@@H]3O[C@H]1C[C@H](N)[C@H](O)[C@H](C)O1 [DOX, doxorubicin]
growth of A549 tumors ([9]; mice consuming corn oil, treated with DOX): halted the growth

Molecule: ferric citrate [iron]
effect of supplemental iron on A549 tumor growth ([9]; mice fed corn oil, supplemental iron and DOX): counteracted the growth inhibitory effect
